Patent publication US20140328930A1, “Pharmaceutical Compositions” (Alpharma Pharmaceuticals, LLC, priority 2007, published 2014)
Structures can show the parent of a compound that is named as a salt.

Key:
[1] = cited from earlier work
[2] = single dose 2.4 mg naltrexone, fasted
clinical = conditions: human, in vivo, 2.4 mg

Q: What does the source list for `O=C1CC[C@@]2(O)[C@H]3Cc4ccc(O)c5c4[C@@]2(CCN3CC2CC2)[C@H]1O5` [naltrexone]?
A: Protein binding ([1]; in vivo): approximately 21%; Oral bioavailability ([1]; oral): 5-40%

Q: With `O=C1CC[C@@]2(O)[C@H]3Cc4ccc(O)c5c4[C@@]2(CCN3CC2CC2)[C@H]1O5` [Naltrexone HCl Solution] as the molecule, how does the “Naltrexone Tlast, Mean” value [2] read?
A: The value was 20.00 h.

Q: And the “Naltrexone λz, Mean” value [2]?
A: The value was 0.2013 h⁻¹.

Q: And the Tmax (clinical)?
A: Its Tmax is 1.13 h.

Q: And the concentration at 0 h (clinical)?
A: The concentration at 0 h was 0 ng/mL.

Q: And the concentration at 0.5 h (clinical)?
A: Its concentration at 0.5 h is 0.455 ng/mL.

Q: What about the concentration at 1 h (clinical) of the same molecule?
A: Its concentration at 1 h is 0.629 ng/mL.

Q: And the concentration at 2 h (clinical)?
A: The concentration at 2 h was 0.465 ng/mL.

Q: What about the concentration at 3 h (clinical) of the same molecule?
A: The concentration at 3 h was 0.286 ng/mL.

Q: What about the concentration at 4 h (clinical) of the same molecule?
A: The concentration at 4 h was 0.182 ng/mL.

Q: What about the concentration at 5 h (clinical) of the same molecule?
A: The concentration at 5 h was 0.133 ng/mL.

Q: And the concentration at 6 h (clinical)?
A: The concentration at 6 h was 0.0957 ng/mL.

Q: And the concentration at 8 h (clinical)?
A: The concentration at 8 h was 0.0518 ng/mL.

Q: And the concentration at 10 h (clinical)?
A: Its concentration at 10 h is 0.0287 ng/mL.

Q: What about the concentration at 12 h (clinical) of the same molecule?
A: Its concentration at 12 h is 0.0205 ng/mL.

Q: And the concentration at 16 h (clinical)?
A: The concentration at 16 h was 0.00996 ng/mL.

Q: What about the concentration at 24 h (clinical) of the same molecule?
A: The concentration at 24 h was 0.00316 ng/mL.

Q: What about the concentration at 36 h (clinical) of the same molecule?
A: The concentration at 36 h was 0.000607 ng/mL.

Q: What about the concentration at 48 h (clinical) of the same molecule?
A: The concentration at 48 h was 0 ng/mL.

Q: And the concentration at 60 h (clinical)?
A: Its concentration at 60 h is 0 ng/mL.

Q: And the concentration at 72 h (clinical)?
A: Its concentration at 72 h is 0 ng/mL.

Q: And the concentration at 84 h (clinical)?
A: Its concentration at 84 h is 0 ng/mL.

Q: And the concentration at 96 h (clinical)?
A: The concentration at 96 h was 0 ng/mL.

Q: And the concentration at 120 h (clinical)?
A: Its concentration at 120 h is 0 ng/mL.

Q: What about the AUC(0-t) (clinical; Naltrexone AUC0-t, Mean, single dose 2.4 mg naltrexone, fasted) of the same molecule?
A: Its AUC(0-t) is 2.2 ng·h/mL.

Q: And the AUC(0-inf) (clinical; Naltrexone AUCinf, Mean, single dose 2.4 mg naltrexone, fasted)?
A: The AUC(0-inf) was 2.24 ng·h/mL.

Q: What about the Cmax (clinical; Naltrexone Cmax, Mean, single dose 2.4 mg naltrexone, fasted) of the same molecule?
A: The Cmax was 0.689 ng/mL.

Q: What about the AUC(0-inf) (clinical; Naltrexone ln(AUCinf), Geometric Mean, Least Squares Mean of log-transformed values) of the same molecule?
A: The AUC(0-inf) was 1.99 ng·h/mL.

Q: What about the AUC(0-t) (clinical; Naltrexone ln(AUClast), Geometric Mean, Least Squares Mean of log-transformed values) of the same molecule?
A: Its AUC(0-t) is 1.95 ng·h/mL.

Q: And the Cmax (clinical; Naltrexone ln(Cmax), Geometric Mean, Least Squares Mean of log-transformed values)?
A: The Cmax was 0.58 ng/mL.
